Laboratory results reported in US20260042772A1, “FURO PYRIMIDINE DERIVATES” (Merck Patent GmbH, priority 2022, published 2026).
Where two headings read alike, the source gives them in different places.

Tests used:
[1] = molecular target: human PI4Kβ (HuPI4Kβ) (Homo sapiens (Human), UniProt Q9UBF8); test: HuPI4Kβ lipid kinase inhibition, ADP-Glo Kinase Assay; type: biochemical; conditions: recombinant enzyme
Experimental: To further test the impact of compounds according to the present invention on human PI4Kβ, HuP[…]β inhibition was tested for selected compounds and contrasted with the results for inhibiting PfNF54 strains as described in the example above. The lipid kinase reaction is performed by incubating lipid substrate (PI:3PS or PIP2:3PS) with a recombinant enzyme and ATP, and the kinase activity is measured using the ADP-GloTM Kinase Assay. First, the kinase reaction is terminated, and any ATP remaining after the reaction is depleted, leaving only ADP. Then the Kinase Detection Reagent is added to convert ADP to ATP, which is used in a coupled luciferin/luciferase reaction. The luminescent output is measured and is correlated with kinase activity. The assays can be performed in 96- or 384-well plates and can be used for enzyme characterization, inhibitor screening or compound profiling. Results measuring the effect of compounds on HuP[…]β are reported in table 2 in nM (IC50) describing the concentration necessary to inhibit 50% of the enzyme's activity (HuP[…]β IC50 (nM)).

[2] = tested on: sensitive (NF54) strains of P. falciparum; test: In vitro P. falciparum assay, modified [3H]hypoxanthine incorporation assay; type: cell-based; conditions: Plasmodium falciparum, NF54 strain
Description: Compounds according to the present invention were screened against sensitive (NF54) strains of P. falciparum in vitro using the modified [3H]hypoxanthine incorporation assay. (Vennerstrom, J. L.; Arbe-Barnes, S.; Brun, R.; Charman, S. A.; Chiu, F. C. K.; Chollet, J.; Dong, Y.; Dorn, A.; Hunziker, D.; Matile, H.; McIntosh, K.; Padmanilayam, M.; Tomas, J. S.; Scheurer, C.; Scorneaux, B.; Tang, Y.; Urwyler, H.; Wittlin, S. and Charman, W. N. Identification of an Antimalarial Synthetic Trioxolane Drug Development Candidate. Nature, 2004, 430, 900-904.).
Compound concentrations at which growth of P. falciparum was inhibited by 50% compared to untreated controls was measured in nM (IC50).
Compound concentrations at which growth of P. falciparum was inhibited by 50% compared to untreated controls was measured in nM (IC50) as described above (PfNF54 IC50 (nM)).

[3] = tested on: P. vivax liver-stage hypnozoites; test: In vitro P. vivax liver-stage assay in primary human hepatocytes, radical cure mode: hypnozoites; type: cell-based; conditions: Plasmodium vivax, Hepatocyte, infected primary human hepatocytes, read-out: Pv Hypnozoite IC50
Experimental: (§1) Compound efficacy against P. vivax liver-stage schizonts and hypnozoites is evaluated in infected primary human hepatocytes (PHHs). Compound screening is performed in 384-well plates, in a 12-point dose response, from 50 μM. All compounds are tested in radical cure mode (RCM). PHHs are seeded onto 384-well plates two days prior to P. vivax sporozoite infection. In RCM, compounds are added to the culture for three days, from day 5 post infection, in duplicate wells. Nigericin and a PI4K inhibitor (KDU691) are used as positive controls in each assay, while solvent (DMSO) without added compound serves as a negative control. Daily medium changes are performed, and the culture is fixed on day twelve post infection to ensure complete parasite clearance. Fixed cells are permeabilized and stained with an anti-UIS4 primary antibody and a fluorescent secondary antibody. Liver-stage schizonts and hypnozoites are then quantified by High Content Imaging. Roth, A., et al. A comprehensive model for assessment of liver stage therapies targeting Plasmodium vivax and Plasmodium falciparum. Nat. Commun. 2018, 9(1), 1837. doi.org/10.1038/s41467-018-04221-9.

[4] = tested on: CQC sensitive strain (NF54) of P. falciparum; test: In vitro antiplasmodial activity, Assay B (as described by Vennerstrom et al. 2004); type: cell-based; conditions: Plasmodium falciparum; NF54, Vennerstrom et al. method
Outline: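 NF54 P. falciparum is exposed to 10-point, 2-fold serial dilutions in complete medium starting at 3000 nM (lowest about 6 nM). Reference drugs start at 1000 ng/mL.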

[5] = tested on: chloroquine sensitive (CQS) strain (NF54) of P. falciparum; test: In vitro antiplasmodial activity, Assay A (parasite lactate dehydrogenase assay); type: cell-based; conditions: Plasmodium falciparum
Outline: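 Asexual erythrocytic-stage cultures of the CQ-sensitive NF54 strain tested in triplicate on two occasions. Ten 2-fold dilutions from 3000 nM down to about 6 nM (references from 1000 ng/mL). Viability read by parasite lactate dehydrogenase assay.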

[6] = tested on: P. vivax liver-stage schizonts; test: In vitro P. vivax liver-stage assay in primary human hepatocytes, radical cure mode: schizonts; type: cell-based; conditions: Plasmodium vivax, Hepatocyte, infected primary human hepatocytes, read-out: Pv Schizont IC50
Experimental: as §1

[7] = growth inhibition, Table 2, read-out: PfNF54 IC50
[8] = [3H]hypoxanthine incorporation, read-out: In vitro P. falciparum growth inhibition IC50

Chain of human PI4Kβ (HuPI4Kβ) (Q9UBF8 whole entry): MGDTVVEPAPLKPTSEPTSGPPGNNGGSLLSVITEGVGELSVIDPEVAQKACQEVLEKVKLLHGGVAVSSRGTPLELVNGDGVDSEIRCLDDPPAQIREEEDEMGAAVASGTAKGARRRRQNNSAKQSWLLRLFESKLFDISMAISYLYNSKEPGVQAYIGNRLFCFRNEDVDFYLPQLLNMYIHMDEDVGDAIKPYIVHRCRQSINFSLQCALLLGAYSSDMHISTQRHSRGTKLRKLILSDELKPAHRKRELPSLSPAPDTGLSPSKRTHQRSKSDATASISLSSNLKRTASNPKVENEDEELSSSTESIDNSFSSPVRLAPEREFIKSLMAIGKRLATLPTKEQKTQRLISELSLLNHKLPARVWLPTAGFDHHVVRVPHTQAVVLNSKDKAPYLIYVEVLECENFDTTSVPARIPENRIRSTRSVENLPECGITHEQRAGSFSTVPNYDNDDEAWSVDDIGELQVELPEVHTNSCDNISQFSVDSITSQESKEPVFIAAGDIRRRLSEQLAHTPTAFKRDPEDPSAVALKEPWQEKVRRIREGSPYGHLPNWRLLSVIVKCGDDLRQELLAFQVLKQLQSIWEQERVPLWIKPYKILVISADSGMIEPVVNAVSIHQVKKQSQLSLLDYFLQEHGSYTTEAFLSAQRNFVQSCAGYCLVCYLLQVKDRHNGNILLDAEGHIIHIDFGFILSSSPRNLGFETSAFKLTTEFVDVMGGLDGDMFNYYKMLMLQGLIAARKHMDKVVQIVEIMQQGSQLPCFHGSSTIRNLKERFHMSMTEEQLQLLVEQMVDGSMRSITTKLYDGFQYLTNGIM

Structure (SMILES) | IC50 [1] [nM] | IC50 [2, 7] [nM] | IC50 [3] [nM] | IC50 [4] [nM] | IC50 [5] [nM] | IC50 [2, 8] [nM] | IC50 [6] [nM]
CC(C)(O)c1cc(-c2ncnc3cc(-c4ccc(C(=O)N5CCOCC5)cc4)oc23)ccn1 [Compound C74, (4-{4-[2-(1-Hydroxy-1-methyl-ethyl)-pyridin-4-yl]-furo[3,2-d]pyrimidin-6-yl}-phenyl)-morpholin-4-yl-methanone] | > 500 | 10 to 50 |  |  |  |  | 
C[C@@H]1COCCN1C(=O)c1ccc(-c2cc3ncnc(-c4ccnc(C(C)(C)O)c4)c3o2)cc1 [Compound C75, (4-{4-[2-(1-Hydroxy-1-methyl-ethyl)-pyridin-4-yl]-furo[3,2-d]pyrimidin-6-yl}-phenyl)-((R)-3-methyl-morpholin-4-yl)-methanone] | > 500 | < 10 |  |  |  |  | 
C[C@@H]1CN(C(=O)c2ccc(-c3cc4ncnc(-c5ccnc(C(C)(C)O)c5)c4o3)cc2)C[C@H](C)O1 [Compound C76, 2-[4-(6-{4-[(2R,6S)-2,6-dimethylmorpholine-4-carbonyl]phenyl}furo[3,2-d]pyrimidin-4-yl)pyridin-2-yl]propan-2-ol] | > 500 | < 10 |  |  |  |  | 
CN1CCN(C(=O)c2ccc(-c3cc4ncnc(-c5ccnc(C(C)(C)O)c5)c4o3)cc2)CC1 [Compound C77, 2-(4-{6-[4-(4-methylpiperazine-1-carbonyl)phenyl]furo[3,2-d]pyrimidin-4-yl}pyridin-2-yl)propan-2-ol] | > 500 | 10 to 50 |  |  |  |  | 
CC(C)(O)c1cccc(-c2ncnc3cc(-c4ccc(S(C)(=O)=O)cc4)oc23)c1F [Compound D149, 2-(2-fluoro-3-(6-(4-(methylsulfonyl)phenyl)furo [3,2-d]pyrimidin-4-yl)phenyl)propan-2-ol] | 100 to 500 | < 10 | < 15 | < 15 | < 15 | < 10 | < 15
CC(C)(O)c1cc(-c2ncnc3cc(-c4ccc(S(C)(=O)=O)cc4)oc23)cc(F)n1 [Compound D150, 2-(6-fluoro-4-(6-(4-(methylsulfonyl)phenyl)furo [3,2-d]pyrimidin-4-yl)pyridin-2-yl)propan-2-ol] |  |  |  | 15 to 50 | > 50 | 10 to 50 | 
CC(C)(O)c1cccc(-c2ncnc3cc(-c4ccc(C(=O)N5CCOCC5)cc4)oc23)c1F [Compound D183, (4-(4-(2-fluoro-3-(2-hydroxypropan-2-yl)phenyl)furo[3,2-d]pyrimidin-6-yl)phenyl)(morpholino) methanone] | 100 to 500 | < 10 | < 15 | < 15 | < 15 | < 10 | < 15
CC(C)(O)c1cccc(-c2ncnc3cc(-c4ccc(C(=O)N5C[C@@H]6C[C@H]5CO6)cc4)oc23)c1F [Compound D197, ((1S,4S)-2-oxa-5-azabicyclo[2.2.1]heptan-5-yl)(4-(4-(2-fluoro-3-(2-hydroxypropan-2-yl)phenyl)furo[3,2-d]pyrimidin-6-yl)phenyl)methanone] | 100 to 500 | < 10 |  | < 15 | < 15 | < 10 | 
CC(C)(O)c1cccc(-c2ncnc3cc(-c4ccc(C(=O)O)cc4)oc23)c1F [Compound D201, 4-(4-(2-fluoro-3-(2-hydroxypropan-2-yl)phenyl)furo[3,2-d]pyrimidin-6-yl)benzoic acid] |  |  | 15 to 50 | 15 to 50 | 15 to 50 |  | < 15
CC(C)(O)c1cccc(-c2ncnc3cc(-c4ccc(S(C)(=N)=O)cc4)oc23)c1F (centres unmarked) [Compound D203, (4-(4-(2-fluoro-3-(2-hydroxypropan-2-yl)phenyl)furo[3,2-d]pyrimidin-6-yl)phenyl)(imino)(methyl)-λ6-sulfanone] |  |  | 15 to 50 | < 15 | < 15 | < 10 | < 15
CC(C)(O)c1cccc(-c2ncnc3cc(-c4ccc(S5(=O)=NCCC5)cc4)oc23)c1F (centres unmarked) [Compound D212, 1-(4-(4-(2-fluoro-3-(2-hydroxypropan-2-yl)phenyl)furo[3,2-d]pyrimidin-6-yl)phenyl)-4,5-dihydro-3H-isothiazole 1-oxide] |  |  |  |  | < 15 | < 10 | 
CC(C)(O)c1cc(-c2ncnc3cc(-c4ccc(S(C)(=O)=O)cc4)oc23)ccn1 [Compound D213, 2-(4-(6-(4-(methylsulfonyl)phenyl)furo [3,2-d]pyrimidin-4-yl)pyridin-2-yl)propan-2-ol] |  |  | > 50 |  |  | 10 to 50 | < 15
